Legend:
[1] = system: human blood cells (whole blood); test: High-gradient magnetic separation (HGMS) filtration of cells from diluted whole blood; type: cell-based; conditions: for Magnetic efficiency, E / Magnetic filtration, M / Mechanical Filtration, F / Total Filtration, T: 0.75 ml/min, 316L matrix
Source text: The samples were verified for normalcy (COULTER COUNTER Model S-Plus; Coulter Electronics, Inc.) before use on the day of drawing.
Separability of cells from carrier fluids was examined using a High-Gradient Magnetic Separation (HGMS) system. The filter was a D-shaped plastic chamber 13 mm long and 118 mm^2 in cross-section, filled with stainless steel wire as noted. Packing was random, but with the major component parallel to flow. […] Suspension flows upward through the filter were controlled by a variable-speed syringe pump, fitted with a 3 ml syringe to contain the cell suspension.
Unless otherwise noted, to clean the matrix and to clear the circuit of air, the filter was flushed manually with 15 ml of the experimental carrier solution before each separation determination. With the electromagnet still de-energized, the circuit was then overfilled rapidly with the corresponding cell suspension, and the syringe pump was activated. After 1.2 ml of cell suspension had been delivered at the chosen flow rate, a one-milliliter aliquot (Al) of filter effluent was collected for use in calculating mechanical filtration levels. With filter backflow prevented, the pump syringe was refilled, the magnet energized at the preselected field intensity, and the delivery and collection (aliquot A2) steps repeated. This sequence was repeated for each selected combination of flow rate and field intensity. A 2 ml control aliquot (A3) was taken for each suspension from the reservoir used to fill the filter and the syringe pump. The aliquots were analyzed for cell count and volume, count data (A1, A2, A3) being used to calculate filter characteristics as follows (for percentages, multiply by 100:)
Mechanical Filtration, F=(A3-A1)/A3
Magnetic filtration, M=(A1-A2)/A3
Magnetic efficiency, E=(A1-A2)/A1=M/(1-F)
Total Filtration, T=(A3-A2)/A3=M+F
The solution osmolarity was adjusted to that of 40 mM erbium chloride by addition of sodium chloride. In a second experiment, 10 mM sodium dithionite in isotonic saline buffered with phosphate was employed.
Erbium chloride was dissolved in water via chelation with EDTA. Carrier solutions of 100 cc each, containing erbium chloride in the concentration of 2 mM, 5 mM, 10 mM, 20 mM, 40 mM and 50 mM respectively and EDTA in a molar ratio of 1.1:1 with the erbium chloride were prepared in the following manner for use in obtaining the data reported in Table I.
The volume was then brought to 75 ml with deionized water, and the materials were mixed in a plastic container. The solution pH was adjusted to 7.0 to 7.1 by adding sodium hydroxide solution. The osmolarity was then adjusted to physiological levels of about 300±10 mOs/L, the 100 ml volume being completed with deionized water. Carrier solutions were prepared within two hours of each experiment from stock solutions no more than one week old.
The above procedures were followed substituting the equivalent amount of dysprosium chloride for the erbium chloride in order to obtain the values reported in FIG. 1.

blood cells = test: Cell integrity during separation (lysis, morphology, clumping, hemoglobin state); type: cell-based, human; conditions: 10 mM sodium dithionite
Description: In Table I, the filtration data at 0.75 ml/min is reported for whole blood diluted 1:101 with the working solution including erbium chelate at the indicated concentration. The matrix material was unannealed, 316L austenitic stainless wire, 35 micrometers in diameter, randomly packed to 11.4% of the filter volume. Table I summarizes experimental filtration data according to the concentration of Er(EDTA)^- in the carrier solution, and includes for comparative purposes, sodium dithionite at 10 mM final concentration as a substitute for the chelated lanthanide. The solution osmolarity was adjusted to that of 40 mM erbium chloride by addition of sodium chloride. In a second experiment, 10 mM sodium dithionite in isotonic saline buffered with phosphate was employed. […] Data for various field intensities are given for the higher chelate concentrations, all at constant flows of 0.75 ml/min. Carrier solutions used in each of the stated concentrations of the lanthanide chelate were prepared as described in Example 1.
Cellular hemoglobin remains in the oxygenated (and therefore the antagonistically diamagnetic) state throughout the separation process. Cell lysis was not detected. […] The cells were readily removed from the matrix by flushing with isotonic saline (0.9% NaCl by weight containing no metal chelate). […]

red blood cells = conditions: 10 mM dithionite or 20 mM nitrite, cited from earlier work; for cell separation: 1.0 Tesla, 1.0 ml/minute, filtration times of more than one minute; for separation efficiency: 2.0 Tesla, unacceptably variable from sample to sample

## O=S([O-])S(=O)[O-].[Na+].[Na+] [Sodium dithionite, sodium dithionite]
[1]; 10 mM, 0.30 T
  Magnetic efficiency, E: 13.0%
  Magnetic filtration, M: 11.6%
  Mechanical Filtration, F: 11.0%
  Total Filtration, T: 22.6%
[1]; 10 mM, 1.00 T
  Magnetic efficiency, E: 76.9%
  Magnetic filtration, M: 68.4%
  Mechanical Filtration, F: 11.0%
  Total Filtration, T: 79.4%
[1]; 50 mM, 0.48 T
  Magnetic efficiency, E: 92.2%
  Magnetic filtration, M: 88.2%
  Mechanical Filtration, F: 4.3%
  Total Filtration, T: 92.5%
[1]; 50 mM, 1.00 T
  Magnetic efficiency, E: 98.4%
  Magnetic filtration, M: 94.1%
  Mechanical Filtration, F: 4.3%
  Total Filtration, T: 98.4%
[1]; 0.3 Tesla, 430 ferritic matrix, 40 mM chelate or 10 mM sodium dithionite, 0.75 ml/min (FIG. 1)
  separation efficiency: 37%
[1]; 0.7 Tesla, 430 ferritic matrix, 10 mM sodium dithionite, identical flows
  separation efficiency: 90%
[1]; 430 ferritic matrix
  repeatable separations at efficiencies greater than 99%: not practical
Blood cells
  deoxygenation of hemoglobin: deoxygenation was confirmed spectrophotometrically
Red blood cells
  cell separation: approximately 70%
  separation efficiency: exceeding 85%

## O=N[O-].[Na+] [nitrite, sodium nitrite]
Red blood cells
  cell separation: approximately 70%
  separation efficiency: exceeding 85%

Source: patent publication US4508625A, “Magnetic separation using chelated magnetic ions” (priority 1983, dated 1985)
